Assay results as given in paper PMC7753147, “High-throughput determination of protein affinities using unmodified peptide libraries in nanomolar scale” (iScience, 2020).

How the values were obtained:
[1] = tested on: gephE; assay: µSPOT peptide microarray binding assay with recombinant gephE
[2] = tested on: native geph; assay: µSPOT peptide microarray binding assay with native geph from mouse brain lysate
Description: Preparation of Mouse Tissue Lysates
Whole mouse brains were obtained from C57BL/6J mice at >4 weeks of age and 80 immediately flash frozen in liquid N2. Tissue of mRFP-gephyrin knock-in animals of 1 year of age (provided by Christian Specht, IBENS, Paris) was processed the same way. Before lysis, whole mouse brains were weighted and cut into four pieces along the coronal and sagittal axis. For preparation of one lysate, two diagonally opposite pieces were transferred into a 1.5 mL reaction tube (Sarsted). Lysis was carried out on ice in 400 µL RIPA lysis buffer (150 mM 85 NaCl, 50 mM Tris-HCl (pH=8), 1% Nonident P-40 substitute, 0.5% DOC, 0.1% SDS (all v/v)), to which Ethylenediaminetetraacetic acid (5 mM end concentration) and 1 mini tablet of ROCHE complete protease inhibitor per 10 mL was added immediately before use, by hand crushing the brain material with a hand pestle in a 1.5 mL reaction tube. Lysis was completed by 1 min sonification on ice with a Sartorius Labsonic M Sonificator at 20% amplitude with 90 care to avoid heating the suspensions. Finally, Lysates were centrifuged for 15 min at 17,200×g and 4 °C. The SN was subsequently collected, transferred to a new 1.5 mL reaction tube, flash frozen in liquid N2 and stored at -80 °C until use.
95 µSPOT slides were blocked by incubation with 2.5 mL 2% (w/v) IGG free bovine serum

[3] = tested on: FL-geph; assay: µSPOT peptide microarray binding assay with full-length geph
[4] = µSPOT peptide microarray, GlyRβ full positional scan, recombinant gephE, intensity normalised to wild-type sequence DLRSNDFSIVGSLPR (=1)
[5] = µSPOT peptide microarray, GlyRβ full positional scan, native geph from mouse brain lysate, intensity normalised to wild-type sequence DLRSNDFSIVGSLPR (=1)
[6] = µSPOT peptide microarray, GlyRβ full positional scan, intensity normalised to wild-type sequence DLRSNDFSIVGSLPR (=1)
[7] = µSPOT full positional scan of GlyRβ 15-mer DLRSNDFSIVGSLPR, intensity normalised to wild-type sequence (= 1)
[8] = µSPOT full positional scan of GlyRβ 15-mer DLRSNDFSIVGSLPR, native geph, intensity normalised to wild-type sequence (= 1)

Sequence	gephE Binding Intensity [norm.] [1, 4]	Native geph Binding Intensity [norm.] [2, 5]	Fl-geph Binding Intensity [norm.] [3, 6]	gephE Binding Intensity [norm.] [1, 7]	Native geph Binding Intensity [norm.] [2, 8]	Fl-geph Binding Intensity [norm.] [3, 7]
DLRSNRFSIVGSLPR [GlyRβ_Full_Positional_Scan_112]	0.84 norm.	0.36 norm.	0.86 norm.			
DCRSNDFSIVGSLPR [GlyRβ_Full_Positional_Scan_037]	0.95 norm.	1.22 norm.	0.9 norm.			
DLRSNDKSIVGSLPR [GlyRβ_Full_Positional_Scan_134, GlyR β 414-428 variant F420K]	0.53 norm.	0.3 norm.	0.61 norm.			
DLRSNDISIVGSLPR [GlyRβ_Full_Positional_Scan_123, GlyR β 414-428 variant F420I]	0.57 norm.	0.46 norm.	0.66 norm.			
ELRSNDFSIVGSLPR [GlyRβ_Full_Positional_Scan_011]	1.1 norm.	0.97 norm.	0.94 norm.			
DLRSNDFLIVGSLPR [GlyRβ_Full_Positional_Scan_144, GlyR β 414-428 variant S421L]	0.6 norm.	0.2 norm.	0.54 norm.			
DLQSNDFSIVGSLPR [GlyRβ_Full_Positional_Scan_060]	0.91 norm.	1.3 norm.	1.06 norm.			
DQRSNDFSIVGSLPR [GlyRβ_Full_Positional_Scan_040]	0.96 norm.	1.16 norm.	0.92 norm.			
DLRSNAFSIVGSLPR [GlyRβ_Full_Positional_Scan_101]	0.98 norm.	0.77 norm.	1.04 norm.			
DLRSHDFSIVGSLPR [GlyRβ_Full_Positional_Scan_093]	0.9 norm.	0.72 norm.	0.75 norm.			
DLRSNDFSICGSLPR [GlyRβ_Full_Positional_Scan_197, GlyR β 414-428 variant V423C]	0.45 norm.	0.36 norm.	0.67 norm.			
CLRSNDFSIVGSLPR [GlyRβ_Full_Positional_Scan_017]	1.12 norm.	0.99 norm.	0.88 norm.			
DLRSNDFSIVGSWPR [GlyRβ_Full_Positional_Scan_248]				0.7 norm.	0.52 norm.	0.93 norm.
DLRSNDFSYVGSLPR [GlyRβ_Full_Positional_Scan_169, GlyR β 414-428 variant I422Y]	0.69 norm.	0.48 norm.	0.84 norm.			
DLRSNDFSIVGSNPR [GlyRβ_Full_Positional_Scan_259]				0.9 norm.	0.97 norm.	1.03 norm.
DLRSNDFSIVGSPPR [GlyRβ_Full_Positional_Scan_245]				0.89 norm.	0.78 norm.	0.96 norm.
DLRSNDFSITGSLPR [GlyRβ_Full_Positional_Scan_196, GlyR β 414-428 variant V423T]	0.66 norm.	0.59 norm.	0.97 norm.			
DLRSNDFSIVGSLNR [GlyRβ_Full_Positional_Scan_279]				0.71 norm.	0.67 norm.	0.77 norm.

Sequence	gephE Binding Intensity [norm.] [1, 4]	Native geph Binding Intensity [norm.] [2, 5]	Fl-geph Binding Intensity [norm.] [3, 6]	gephE Binding Intensity [norm.] [1, 7]	Native geph Binding Intensity [norm.] [2, 8]	Fl-geph Binding Intensity [norm.] [3, 7]
NLRSNDFSIVGSLPR [GlyRβ_Full_Positional_Scan_019]	1.15 norm.	1.28 norm.	1 norm.			
DLRVNDFSIVGSLPR [GlyRβ_Full_Positional_Scan_066]	0.91 norm.	0.98 norm.	0.9 norm.			
DLRTNDFSIVGSLPR [GlyRβ_Full_Positional_Scan_076]	0.93 norm.	1.12 norm.	1.09 norm.			
DLRSNDFSIVVSLPR [GlyRβ_Full_Positional_Scan_206, GlyR β 414-428 variant G424V]	0.43 norm.	0.17 norm.	0.42 norm.			
DLRSNDFFIVGSLPR [GlyRβ_Full_Positional_Scan_147, GlyR β 414-428 variant S421F]	0.53 norm.	0.18 norm.	0.64 norm.			
FLRSNDFSIVGSLPR [GlyRβ_Full_Positional_Scan_007]	0.96 norm.	0.77 norm.	1.03 norm.			
DLRSNNFSIVGSLPR [GlyRβ_Full_Positional_Scan_119]	0.89 norm.	0.57 norm.	0.69 norm.			
DLRSNDFSIVGSRPR [GlyRβ_Full_Positional_Scan_252]				0.84 norm.	0.38 norm.	1.07 norm.
DLVSNDFSIVGSLPR [GlyRβ_Full_Positional_Scan_046]	0.94 norm.	1.47 norm.	1.27 norm.			
DLKSNDFSIVGSLPR [GlyRβ_Full_Positional_Scan_054]	1.01 norm.	1.21 norm.	1.24 norm.			
RLRSNDFSIVGSLPR [GlyRβ_Full_Positional_Scan_012]	0.98 norm.	0.46 norm.	0.99 norm.			
DLRSNDFSIYGSLPR [GlyRβ_Full_Positional_Scan_189, GlyR β 414-428 variant V423Y]	0.79 norm.	0.34 norm.	0.84 norm.			
DLRDNDFSIVGSLPR [GlyRβ_Full_Positional_Scan_070]	0.95 norm.	1.34 norm.	1.09 norm.			
DLRSNDFSDVGSLPR [GlyRβ_Full_Positional_Scan_170, GlyR β 414-428 variant I422D]	0.29 norm.	0.17 norm.	0.29 norm.			
DLRSNDFSIVDSLPR [GlyRβ_Full_Positional_Scan_210, GlyR β 414-428 variant G424D]	0.22 norm.	0.15 norm.	0.16 norm.			
DLRQNDFSIVGSLPR [GlyRβ_Full_Positional_Scan_080]	0.89 norm.	1.04 norm.	0.98 norm.			
DLRSNDFSFVGSLPR [GlyRβ_Full_Positional_Scan_167, GlyR β 414-428 variant I422F]	0.51 norm.	0.27 norm.	0.76 norm.			
DLRSNDDSIVGSLPR [GlyRβ_Full_Positional_Scan_130, GlyR β 414-428 variant F420D]	0.45 norm.	0.26 norm.	0.38 norm.			
